Data set [1] has as its target T1, SARS-CoV-2 nsp13 (Severe acute respiratory syndrome coronavirus 2, UniProt P0DTD1). The data set can be described thus: SARS-CoV-2 nsp13 ATPase-associated activity (Biomol Green, BSA-TCEP). The data set is classed as biochemical. The settings on record: for IC50: SARS-CoV-2 nsp13-associated ATPase activity, from dose-response curves; for remaining activity at 30 µM: measured at 30 µM, read-out: Percentage of enzymatic residual activity (ATPase).

The target of data set [2] is T1, SARS-CoV-2 nsp13. As to the kind of experiment: SARS-CoV-2 nsp13 unwinding-associated activity (fluorescence, BSA-TCEP). The data set is classed as biochemical. The settings on record: for IC50: SARS-CoV-2 nsp13-associated unwinding activity, from dose-response curves; for remaining activity at 30 µM: measured at 30 µM, read-out: Percentage of enzymatic residual activity (unwinding).

The nature of data set [3]: Cellular toxicity assay (GFP signal as viability). The settings on record: African green monkey; Vero cells; read-out: CC50, concentration required to reduce Vero cells viability by 50%. The format is cell-based. As for the experimental part: Vero E6-green fluorescent protein (GFP) cells (Janssen Pharmaceutical were maintained in Dulbecco’s modified Eagle’s medium (DMEM, Gibco) supplemented with 10% v/v foetal beef serum (FBS, Gibco), 0.075% Sodium Bicarbonate (7.5% solution, Gibco) and 1X Pen-strep (Euroclone) and kept under 5% CO2 on 37 ◦C. The cells were seeded at 10 000 cells/well in 96-well black cell-treated plates (PerkinElmer). The following day, cells were incubated with the control compounds at different concentrations. Compound was dissolved in 0.1% DMSO. Seventy-two hours post infection the GPF signal, as direct index of cellular viability, was quantified by measuring the total-well fluorescence with a Victor 3 multiplate reader (PerkinElmer) set to excitation and emission wavelengths of 485 and 535 nm, respectively.
The percentage of induced cytopathic effects (CPE) was calculated considering the mock as 100% of cell viability, and the readout from empty wells as blank. The compound half-maximal cytopathic concentration (CC50), was determined via non-linear regression by using on Prism 9 v. 9.4.1 software (GraphPad) the built-in function dose-response inhibition, log-concentration-normalized response. Experimental points represent the average and standard deviation of at least two sets of independent triplicates.

The target in data set [4] is T1, SARS-CoV-2 nsp13. The data set can be described thus: Incubation-dependent potency of 5c on nsp13 (inhibition type). The data set is classed as biochemical. The conditions noted are these: for IC50: read-out: IC50 at time-point.
The test system of data set [5] is SARS-CoV-2. The settings on record: read-out: EC50 antiviral activity; cited from earlier work.
Data set [6] has as its target T1, SARS-CoV-2 nsp13. The conditions noted are these: SARS-CoV-2 nsp13; read-out: IC50 vs unwinding; cited from earlier work.
Setting [7] is: read-out: Activity in enzyme assay IC50 ATPase BSA-TCEP.
Setting [8] is: read-out: Activity in enzyme assay IC50 Unwinding BSA-TCEP.
Where [9] appears, read: Activity in enzyme assay IC50 ATPase BSA-TCEP.
Where [10] appears, read: Activity in enzyme assay IC50 Unwinding BSA-TCEP.

Data on 28 compounds can be found in article PMC12344683, “N-alkyl and N-benzyl indoles are anti-SARS-CoV-2 agents and nsp13 inhibitors” (Journal of Enzyme Inhibition and Medicinal Chemistry, 2025).

Read-outs that look alike come from different tables or passages of the source. Bounds are passed on as bounds.

One may read the IC50 as the midpoint of a concentration-inhibition curve. The EC50 is the concentration that produces a half-maximal response.

As for `CC(C)c1ccc(Cn2cc(/C=C/C(=O)/C=C(\O)C(=O)O)c3ccccc32)cc1` [5c], the IC50 in data set [1] (setting [7]) was determined as 1.8 ± 0.19 µM; in data set [2] (setting [8]), 4.73 ± 0.5 µM; in data set [4] (1 min after activation of the reaction with the substrate), 0.76 µM; in data set [4] (5 min after activation of the reaction with the substrate) it was 1.64 µM; in data set [4] (10 min after activation of the reaction with the substrate) it was 2.75 µM; in data set [4] (15 min after activation of the reaction with the substrate) it was 2.94 µM. In addition, the IC50 in data set [4] (20 min after activation of the reaction with the substrate) was 2.76 µM. For the same compound, the “higher ATPase inhibition in respect to 4” value in data set [1] (ratio of IC50 values) stood at 7 fold. Moreover, the CC50 at 72 h in data set [3] is > 100 µM. Moreover, the “nature of the inhibition” value in data set [4] (from time-increased IC50 values) is on record as “non-covalent/reversible”. Also, the “effect of extended pre-incubation of compound and enzyme on inhibitory potency” value in data set [4] (pre-incubation extended to +20 min and +50 min at RT) is “did not lead to an increase of the inhibitory potency”.
`O=C(/C=C(\O)C(=O)O)/C=C/c1cn(Cc2ccc(OC(F)(F)F)cc2)c2ccccc12` [5e]: the IC50 is 6.41 ± 0.05 µM in data set [1] (setting [7]) and 6.24 ± 0.24 µM in data set [2] (setting [8]). For the same compound, the CC50 at 72 h in data set [3] was > 100 µM.
With `N#Cc1ccc(Cn2cc(/C=C/C(=O)/C=C(\O)C(=O)O)c3ccccc32)cc1` [5g, (2Z,5E)-6-(1-(4-cyanobenzyl)-1H-indol-3-yl)-2-hydroxy-4-oxohexa-2,5-dienoic acid], the results for the IC50 in data set [1] (setting [7]) and in data set [2] (setting [8]) were 1.91 ± 0.31 µM and 2.08 ± 0.04 µM, respectively. Besides, the CC50 at 72 h in data set [3] is > 100 µM.
`O=C(/C=C(\O)C(=O)O)/C=C/c1cn(Cc2ccc(F)cc2)c2ccc(Cl)cc12` [5i, (2Z,5E)-6-(5-chloro-1-(4-fluorobenzyl)-1H-indol-3-yl)-2-hydroxy-4-oxohexa-2,5-dienoic acid]: the results for the IC50 in data set [1] (setting [7]) and in data set [2] (setting [8]) were 26.3 ± 2.52 µM and 0.47 ± 0.01 µM, respectively. For the same compound, the “selectivity for unwinding over ATPase” value in data set [2] (IC50 unwinding vs IC50 ATPase) is reported as 2 order of magnitude. In data set [2] (ratio of IC50 values), the “gain in activity on unwinding with respect to the hit 4” value was 27 fold. Further, in data set [3], the CC50 at 72 h is > 100 µM.
For `CCOC(=O)/C(O)=C/C(=O)/C=C/c1cn(Cc2ccc(OC(F)(F)F)cc2)c2ccccc12` [6e], the figures for the IC50 in data set [1] (setting [7]) and in data set [2] (setting [8]) were 2.17 ± 0.26 µM and 5.66 ± 0.21 µM, respectively. The CC50 at 72 h in data set [3] was > 100 µM.
Regarding `O=C(O)/C(O)=C/C(=O)c1cn(Cc2ccc(OC(F)(F)F)cc2)c2ccccc12` [7e], the IC50 is 20.3 µM in data set [1] (setting [9]) and 22.2 ± 1.37 µM in data set [2] (setting [10]).
For `O=C(O)/C(O)=C/C(=O)c1cn(Cc2ccccc2)c2ccccc12` [7j, (Z)-4-(1-benzyl-1H-indol-3-yl)-2-hydroxy-4-oxobut-2-enoic acid] the same measures were 10.3 ± 1.75 µM and 30 ± 1.5 µM.
As to `CCOC(=O)/C(O)=C/C(=O)c1cn(Cc2ccc(OC)cc2)c2ccccc12` [8a], the IC50 amounted to 8.06 ± 1.78 µM in data set [1] (setting [9]) and 13.1 ± 1.78 µM in data set [2] (setting [10]).
Taken in the same sequence, the figures for `CCOC(=O)/C(O)=C/C(=O)c1cn(Cc2ccc(C)cc2)c2ccccc12` [8b] were 7.01 ± 0.05 µM and 13.2 ± 2.76 µM.
Taken in the same sequence, the figures for `CCOC(=O)/C(O)=C/C(=O)c1cn(Cc2ccc(C(C)C)cc2)c2ccccc12` [8c] were 9.64 ± 2.27 µM and 9.66 ± 2.89 µM.
Turning to `CCOC(=O)/C(O)=C/C(=O)c1cn(Cc2ccc(F)cc2)c2ccccc12` [8d, Ethyl (Z)-4-(1-(4-fluorobenzyl)-1H-indol-3-yl)-2-hydroxy-4-oxobut-2-enoate], the IC50 in data set [1] (setting [9]) was 8.7 ± 0.53 µM; in data set [2] (setting [10]), 1.73 ± 0.53 µM. Further, the CC50 at 72 h in data set [3] is > 100 µM.
For the compound `CCOC(=O)/C(O)=C/C(=O)c1cn(Cc2ccc(OC(F)(F)F)cc2)c2ccccc12` [8e], the concentration for half-maximal inhibition (IC50) in data set [1] (setting [9]) was 2.29 ± 0.02 µM; in data set [2] (setting [10]) it was 11.3 ± 0.65 µM.
For `CCOC(=O)/C(O)=C/C(=O)c1cn(Cc2ccccc2)c2ccccc12` [8j, Ethyl (Z)-4-(1-benzyl-1H-indol-3-yl)-2-hydroxy-4-oxobut-2-enoate] the same measures were 14.5 ± 1.49 µM and 26 ± 0.89 µM.
Consider `C/C=C/Cn1cc(/C=C/C(=O)/C=C(\O)C(=O)O)c2ccccc21` [9a, (2Z,5E)-6-(1-((E)-but-2-en-1-yl)-1H-indol-3-yl)-2-hydroxy-4-oxohexa-2,5-dienoic acid], for which the IC50 in data set [1] (setting [7]) was > 30 µM; in data set [2] (setting [8]) it was 19.4 ± 3.7 µM. Further, the remaining activity at 30 µM in data set [1] is 70%.
In the case of `C=C(C)Cn1cc(/C=C/C(=O)/C=C(\O)C(=O)O)c2ccccc21` [9b, (2Z,5E)-2-hydroxy-6-(1-(2-methylallyl)-1H-indol-3-yl)-4-oxohexa-2,5-dienoic acid], the IC50 in data set [1] (setting [7]) and in data set [2] (setting [8]) was > 30 µM each time. For the same compound, the remaining activity at 30 µM turned out to be 68% in data set [1] and 72% in data set [2].
For the compound `CC(C)=Cn1cc(/C=C/C(=O)/C=C(\O)C(=O)O)c2ccccc21` [9c, (2Z,5E)-2-hydroxy-6-(1-(2-methylprop-1-en-1-yl)-1H-indol-3-yl)-4-oxohexa-2,5-dienoic acid], the IC50 in data set [1] (setting [7]) is > 30 µM; in data set [2] (setting [8]), 1.56 ± 0.16 µM. Also, the remaining activity at 30 µM in data set [1] came to 98.6%. Moreover, the CC50 at 72 h in data set [3] is > 100 µM.
In the case of `CCn1cc(/C=C/C(=O)/C=C(\O)C(=O)O)c2ccccc21` [9d], the IC50 in data set [1] (setting [7]) turned out to be 8.32 ± 0.08 µM; in data set [2] (setting [8]), 11.8 ± 4.03 µM.
Consider `CCCCn1cc(/C=C/C(=O)/C=C(\O)C(=O)O)c2ccccc21` [9e, (2Z,5E)-6-(1-butyl-1H-indol-3-yl)-2-hydroxy-4-oxohexa-2,5-dienoic acid], for which the IC50 in data set [1] (setting [7]) was > 30 µM. Also, the remaining activity at 30 µM in data set [1] was found to be 100%; in data set [2], 41%.
As to `CC(C)CCn1cc(/C=C/C(=O)/C=C(\O)C(=O)O)c2ccccc21` [9f, (2Z,5E)-2-hydroxy-6-(1-isopentyl-1H-indol-3-yl)-4-oxohexa-2,5-dienoic acid], the half-inhibitory concentration (IC50) turned out to be 23.1 ± 1.41 µM in data set [1] (setting [7]) and 15.9 ± 0.59 µM in data set [2] (setting [8]).
`C/C=C/Cn1cc(/C=C/C(=O)/C=C(\O)C(=O)OCC)c2ccccc21` [10a, Ethyl (2Z,5E)-6-(1-((E)-but-2-en-1-yl)-1H-indol-3-yl)-2-hydroxy-4-oxohexa-2,5-dienoate]: the IC50 in data set [1] (setting [7]) is 8.79 ± 0.69 µM; in data set [2] (setting [8]), 13.2 ± 1.86 µM.
Taken in the same sequence, the figures for `C=C(C)Cn1cc(/C=C/C(=O)/C=C(\O)C(=O)OCC)c2ccccc21` [10b, Ethyl (2Z,5E)-2-hydroxy-6-(1-(2-methylallyl)-1H-indol-3-yl)-4-oxohexa-2,5-dienoate] were 7.26 ± 0.65 µM and 21.5 ± 0.23 µM.
Taken in the same sequence, the figures for `CCOC(=O)/C(O)=C/C(=O)/C=C/c1cn(C=C(C)C)c2ccccc12` [10c, Ethyl (2Z,5E)-2-hydroxy-6-(1-(2-methylprop-1-en-1-yl)-1H-indol-3-yl)-4-oxohexa-2,5-dienoate] were 4.93 ± 1.4 µM and 19.3 ± 0.76 µM.
Taken in the same sequence, the figures for `CCOC(=O)/C(O)=C/C(=O)/C=C/c1cn(CC)c2ccccc12` [10d] were 18.5 ± 0.65 µM and 11.8 ± 4.03 µM.
Regarding `CCCCn1cc(/C=C/C(=O)/C=C(\O)C(=O)OCC)c2ccccc21` [10e, Ethyl (2Z,5E)-6-(1-butyl-1H-indol-3-yl)-2-hydroxy-4-oxohexa-2,5-dienoate], the IC50 worked out at 5.72 ± 1.63 µM in data set [1] (setting [7]) and 14.8 ± 1.18 µM in data set [2] (setting [8]).
In the case of `CCOC(=O)/C(O)=C/C(=O)/C=C/c1cn(CCC(C)C)c2ccccc12` [10f, Ethyl (2Z,5E)-2-hydroxy-6-(1-isopentyl-1H-indol-3-yl)-4-oxohexa-2,5-dienoate], the IC50 in data set [1] (setting [7]) was 6.27 ± 0.2 µM; in data set [2] (setting [8]) it was 13.5 ± 0.25 µM.
On to `CC[C@@]1(O)C(=O)OCc2c1cc1n(c2=O)Cc2cc3ccccc3nc2-1` [Camptothecin, reference compound], for which the CC50 at 72 h in data set [3] amounted to 11.1 ± 0.16 µM.
Turning to `C=CCn1c(CSc2ccccc2[N+](=O)[O-])n[nH]c1=S` [SSYA10-001], the EC50 in data set [5] is 81 µM. The concentration for half-maximal inhibition (IC50) in data set [6] is 7.5 µM.
For `CC(C)=CCc1c(O)cc(O)c2c(=O)cc(-c3ccc(O)cc3)oc12` [compound 2, licoflavone C], the EC50 in data set [5] was > 100 µM.
